Source: patent US4450173A, “Compounds and method for treatment or prophylaxis of cardiac disorders” (American Hospital Supply Corporation, priority 1982, dated 1984)
Structures can show the parent of a compound that is named as a salt. Where two headings read alike, the source gives them in different places.

Experiments:
[1] = molecular target: guinea pig tracheal strips (Cavia porcellus, UniProt Q8K4Z4); assay: cell-based; assay type: cell-based; conditions: for pA2 Trachea: guinea pig trachea, carbachol tension, isoproterenol, 60 minute incubation, pA2 = -log KB; for Kb: read-out: pA2 Trachea (converted)
Chain of guinea pig tracheal strips (Q8K4Z4 whole entry): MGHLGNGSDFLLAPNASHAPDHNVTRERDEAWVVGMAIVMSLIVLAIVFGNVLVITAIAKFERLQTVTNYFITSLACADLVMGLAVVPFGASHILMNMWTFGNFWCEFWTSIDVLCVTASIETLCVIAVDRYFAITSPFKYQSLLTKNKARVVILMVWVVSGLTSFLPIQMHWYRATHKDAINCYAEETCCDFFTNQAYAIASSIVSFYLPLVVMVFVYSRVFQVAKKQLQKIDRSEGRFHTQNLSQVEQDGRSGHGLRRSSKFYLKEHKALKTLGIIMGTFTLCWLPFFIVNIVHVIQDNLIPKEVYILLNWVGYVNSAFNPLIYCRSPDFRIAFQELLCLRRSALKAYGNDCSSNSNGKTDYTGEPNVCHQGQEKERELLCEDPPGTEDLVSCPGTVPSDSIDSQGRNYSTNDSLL
Description: Each tissue was suspended between a fixed glass rod and a Statham® Universal Transducer connected to a Beckman® recorder. Atria were allowed to beat spontaneously under a loading tension of approximately 0.5 gm. Intrinsic depressant for stimulant activity was determined for each compound by progressively increasing concentrations in the tissue baths at 60-minute intervals. Tissues were not washed between increments. […] Changes in rate in response to isoproterenol were measured in the absence and presence of test compounds. Spiral strips of guinea pig trachea were suspended under 5 gm resting tension and incubated with phentolamine, tropolone and cocaine. Active tension was generated by addition of carbachol (3.0×10^-7 M) and decreases in tension in response to isoproterenol were quantitated. Cumulative concentration-response curves were produced with isoproterenol both before and after 60 minute incubation of test compounds with atria and trachea. The blocking potency of test compounds was estimated by computing pA2 values (-log KB) by the method of Furchgott, The Pharmacological Differentiation of Adrenergic Receptors, Ann. […] A ratio greater than one indicates cardioselectivity.

[2] = tested on: guinea pig right atria and guinea pig tracheal strips; assay: Cardioselectivity, KB tracheal/KB atrial; assay type: cell-based
Description: Several of the compounds of the present invention were tested for β-blocking activity in vitro using guinea pig right atria and guinea pig tracheal strips mounted in a tissue bath containing oxygenated (95% O2 -5% CO2) Krebs physiological salt solution at 37° C. Each tissue was suspended between a fixed glass rod and a Statham® Universal Transducer connected to a Beckman® recorder. Atria were allowed to beat spontaneously under a loading tension of approximately 0.5 gm. Intrinsic depressant for stimulant activity was determined for each compound by progressively increasing concentrations in the tissue baths at 60-minute intervals. Tissues were not washed between increments. […]. Changes in rate in response to isoproterenol were measured in the absence and presence of test compounds. Spiral strips of guinea pig trachea were suspended under 5 gm resting tension and incubated with phentolamine, tropolone and cocaine. Active tension was generated by addition of carbachol (3.0×10^-7 M) and decreases in tension in response to isoproterenol were quantitated. Cumulative concentration-response curves were produced with isoproterenol both before and after 60 minute incubation of test compounds with atria and trachea. The blocking potency of test compounds was estimated by computing pA2 values (-log KB) by the method of Furchgott, The Pharmacological Differentiation of Adrenergic Receptors, Ann. N.Y. Acad. Sci.; 139: 553-570 (1967). Comparison of blockade of right atrial and tracheal responses to isoproterenol permitted assessment of cardioselectivity of test compounds; […]. A ratio greater than one indicates cardioselectivity. […]

[3] = tested on: heart rate response to isoproterenol (β-receptor mediated tachycardia); assay: Duration of β-blockade in vivo in anesthetized dogs, 40-minute infusion; set-up: species or system dog; conditions: for 80% Recovery Time: after 40-minute infusion, normalized to 50% inhibition; for ED50: Canis lupus familiaris, iv, 40 min, read-out: Potency (mg/kg/40 min)
Description: (§1) The duration of β-blockade was determined in vivo using pentobartital-anesthetized dogs instrumented for measurement of heart rate using a Beckman® cardiotachometer triggered electronically by a phasic aortic blood pressure signal. Both vagus nerves were severed in the cervical region and the animals were mechanically ventilated. Two experimental designs were used. The first employed a 40-minute infusion of test compound and the second used a 3-hour infusion of test compound. In the 40-minute model, isoproterenol was infused into a foreleg vein at the rate of 0.5 μg/kg/min to induce a β-receptor mediated tachycardia. Various doses of test compound are then infused into a femoral vein over a period of 40 minutes. This infusion was then terminated and recovery from blockade was quantitated. […] This cumulative dose is expressed as mg/kg and is an indication of potency. The time period required for 80% recovery of heart rate response for each dose of test drug was also measured to quantitate duration of action. […] Test compounds were dissolved in 0.9% NaCl and infused at a rate of 0.05 mL/kg/min or less. In the 3-hour infusion model, bolus doses of isoproterenol (0.4 μg/kg) were used to assess the degree of β-blockade and recovery from β-blockade after termination of the infusion. The doses were spaced at 10-minute intervals and were given before, during and following the infusion of test compounds. The infusion rate was adjusted so that at the end of the 3-hour infusion period the degree of isoproterenol inhibition averaged about 50% of control.

guinea pig right atria = guinea pig right atria (Cavia porcellus, UniProt H0W3H1); assay: β-blocking activity in vitro, guinea pig right atria (rate response to isoproterenol); assay type: cell-based; conditions: for pA2 Atria: guinea pig right atria, isoproterenol, 60 minute incubation, pA2 = -log KB
Chain of guinea pig right atria (H0W3H1 1-470): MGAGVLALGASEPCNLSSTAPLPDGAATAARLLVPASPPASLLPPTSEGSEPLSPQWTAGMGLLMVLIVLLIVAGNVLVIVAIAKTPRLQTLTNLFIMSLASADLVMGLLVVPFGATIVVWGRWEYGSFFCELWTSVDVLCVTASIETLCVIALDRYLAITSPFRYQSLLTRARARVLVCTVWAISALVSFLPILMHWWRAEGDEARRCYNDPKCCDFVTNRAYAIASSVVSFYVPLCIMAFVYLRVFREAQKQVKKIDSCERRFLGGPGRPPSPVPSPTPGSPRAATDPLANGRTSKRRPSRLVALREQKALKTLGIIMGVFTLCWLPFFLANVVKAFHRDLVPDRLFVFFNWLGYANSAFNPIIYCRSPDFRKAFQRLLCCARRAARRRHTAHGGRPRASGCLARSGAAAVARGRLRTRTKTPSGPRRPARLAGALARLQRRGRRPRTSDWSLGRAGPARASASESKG
Description: Each tissue was suspended between a fixed glass rod and a Statham® Universal Transducer connected to a Beckman® recorder. Atria were allowed to beat spontaneously under a loading tension of approximately 0.5 gm. Intrinsic depressant for stimulant activity was determined for each compound by progressively increasing concentrations in the tissue baths at 60-minute intervals. Tissues were not washed between increments. The maximum concentration showing little or no cardiodepressant activity was chosen for blockade experiments. Changes in rate in response to isoproterenol were measured in the absence and presence of test compounds. Spiral strips of guinea pig trachea were suspended under 5 gm resting tension and incubated with phentolamine, tropolone and cocaine. Active tension was generated by addition of carbachol (3.0×10^-7 M) and decreases in tension in response to isoproterenol were quantitated. Cumulative concentration-response curves were produced with isoproterenol both before and after 60 minute incubation of test compounds with atria and trachea. The blocking potency of test compounds was estimated by computing pA2 values (-log KB) by the method of Furchgott, The Pharmacological Differentiation of Adrenergic Receptors, Ann. […] The degree of cardioselectivity was estimated from the ratio, KB tracheal/KB atrial (10^(pA.sbsp.2^atria-pA.sbsp.2^trachea)). A ratio greater than one indicates cardioselectivity. Test drugs were dissolved in distilled water and added to the bath (30 mL) in a volume of 10 or 100 μL.

[4] = tested on: heart rate response to isoproterenol; assay: Duration of β-blockade in vivo in anesthetized dogs, 3-hour infusion; set-up: species or system dog; conditions: for ED50: Canis lupus familiaris, iv, 3-hour infusion, read-out: Potency (mg/kg/180 min); for ED50 / % I (Percent inhibition of heart rate response to isoproterenol): bolus isoproterenol 0.4 μg/kg; for 80% Recovery Time: after 3-hour infusion; for % I (Percent inhibition of heart rate response to isoproterenol): end of 3-hour infusion
Description: as §1

[5] = Disappearance in vitro in dog whole blood; assay type: in vitro ADME; conditions: 50 μg in 1 mL added to 1 mL dog whole blood, 37° C.; read-out: T1/2 Dog Whole Blood
Description: (§2) The rate of disappearance of a compound is expressed as the half-life (T1/2), which is the time period in which one-half of the initial amount of compound tested disappears. In each experiment, 1 mL of a solution containing 50 μg of the test compound was added to 1 mL of whole blood or 1 mL of a 33% (w/v) liver homogenate. […] At the designated time periods, the test mixtures were removed from the incubator and transferred to a 0° C. ice bath. Acetonitrile (2 mL) was immediately added and the mixtures were mixed to stop enzymatic hydrolysis. Zero time samples were prepared by adding 2 mL of acetonrile to denature the proteins prior to addition of the test compounds. […] The half life of each test compound was determined graphically by plotting the decrease in concentration as a function of time.

[6] = Disappearance in vitro in human whole blood; assay type: in vitro ADME; conditions: 50 μg in 1 mL added to 1 mL human whole blood, 37° C.; read-out: T1/2 Human Whole Blood
Description: as §2

[7] = Disappearance in vitro in dog liver homogenate; assay type: in vitro ADME; conditions: 50 μg in 1 mL added to 1 mL of 33% (w/v) dog liver homogenate, 37° C.; read-out: T1/2 Dog Liver Homogenate
Description: as §2

[8] = ratio KB tracheal/KB atrial, greater than one indicates cardioselectivity
[9] = read-out: pA2 Atria (converted)

## CCOC(=O)CNCC(O)COc1ccccc1 (stereo not shown) [Example I, Ethyl N-(2-Hydroxy-3-phenoxypropyl) glycinate Oxalate]
[1]
  pA2 Trachea: 5.6
[2]; [8]
  Cardioselectivity: 1
[3]; cumulative dose over 40-minute infusion, normalized to 50% inhibition of isoproterenol response, dogs
  Potency (mg/kg/40 min): very low

## CCOC(=O)CNCC(O)COc1cccc2ccccc12 (stereo not shown) [Example II, Ethyl N-[[2-Hydroxy-3-(1-naphthoxy]propyl]glycinate Oxalate Hemihydrate]
[3]; dogs
  80% Recovery Time: 53 ± 11 min

## CCOC(=O)CCNCC(O)COc1ccccc1 (stereo not shown) [Example III, Ethyl 3-[N-[2-Hydroxy-3-phenoxy)propyl]amino]propionate Oxalate]
[1]
  pA2 Trachea: 5.9
[2]; [8]
  Cardioselectivity: 25
[3]
  ED50: 12.6 ± 4.1 mg/kg
[3]; dogs
  80% Recovery Time: 29 ± 13 min

## CCOC(=O)CCCNCC(O)COc1ccccc1 (stereo not shown) [Example IV]
[1]
  pA2 Trachea: 6.0

## CCOC(=O)C(Cc1ccc(O)cc1)NCC(O)COc1ccccc1 (stereo not shown) [Example V, Ethyl N[(2-Hydroxy-3-phenoxy)propyl]tyrosinate]
[1]
  pA2 Trachea: inactive
Guinea pig right atria
  pA2 Atria: inactive

## CCOC(=O)CCNCC(O)COc1ccc(Cl)cc1 (stereo not shown) [Example VI, Ethyl 3[N-[3-[4-(chlorophenoxy)-2-hydroxy]propyl]amino]propionate Hydrochloride]
[1]
  pA2 Trachea: 5.6
[2]; [8]
  Cardioselectivity: 6

## CCOC(=O)CCNCC(O)COc1ccc(CCC(=O)OC)cc1.Cl (stereo not shown) [Example VII, Ethyl 3-[N-[2-Hydroxy-3-[4-[2-(methoxycarbonyl)ethyl]phenoxy]propyl]amino]propionate Hydrochloride]
[1]
  Kb: > 10000 nM
[2]; [8]
  Cardioselectivity: > 8
Guinea pig right atria; [9]
  Kb: 1260 nM

## CC(=O)Nc1ccc(OCC(O)CNC(C)C)cc1 (stereo not shown) [Practolol, reference compound]
Guinea pig right atria
  Kb: […]
[3]; dogs
  80% Recovery Time: 61 min

## CC(C)NCC(O)COc1cccc2ccccc12 (stereo not shown) [Propranolol, reference compound]
[3]; dogs
  80% Recovery Time: 46 min

## CCOC(=O)CCNCC(O)COc1ccccc1C(=O)OC (stereo not shown) [VIII, Ethyl 3-[N-[2-Hydroxy-3-[2-(methoxycarbonyl)phenoxy]propyl]amino]propionateOxalate Hemihydrate]
[1]
  pA2 Trachea: 6.6
[2]
  Cardioselectivity: 1.0
Guinea pig right atria; [9]
  Kb: 251 nM
[4]
  ED50: 27.4 ± 6 mg/kg
  80% Recovery Time: 10 ± 2 min
  % I (Percent inhibition of heart rate response to isoproterenol): 53 ± 2%

## Cc1ccccc1OCC(O)CNCCC(=O)Oc1ccc(F)cc1 (stereo not shown) [XIX]
Guinea pig right atria; [9]
  Kb: 2000 nM

## CCOC(=O)CCCNCC(O)COc1ccccc1C (stereo not shown) [XI]
[1]
  pA2 Trachea: 6.7
[2]; [8]
  Cardioselectivity: 5
[5]
  half-life: > 3 h
[3]
  ED50: 3.1 ± 0.7 mg/kg
[3]; dogs
  80% Recovery Time: 15 ± 2 min
[6]
  half-life: 1.95 ± 0.65 h

## Cc1ccccc1OCC(O)CNCCC(=O)Oc1ccccc1 (stereo not shown) [XVIII]
Guinea pig right atria; [9]
  Kb: 398 nM
[4]
  ED50: 54 ± 14 mg/kg
  80% Recovery Time: > 60 min
  % I (Percent inhibition of heart rate response to isoproterenol): 54 ± 8%

## COC(=O)CCNCC(O)COc1ccccc1C (stereo not shown) [XVII]
[1]
  pA2 Trachea: 7.0
[2]
  Cardioselectivity: 1.6
[5]
  half-life: 0.867 ± 0.15 h
[7]
  half-life: 9 ± 8 min
[4]
  ED50: 4.4 mg/kg
  80% Recovery Time: 27 ± 4 min
  % I (Percent inhibition of heart rate response to isoproterenol): 56 ± 4%
[6]
  half-life: 2.47 ± 0.0333 h

## COC(=O)c1ccc(CNCC(O)COc2ccccc2C)cc1 (stereo not shown) [XVI]
[1]
  Kb: 200 nM
[2]; [8]
  Cardioselectivity: 1.6

## CCOC(=O)c1ccc(CNCC(O)COc2ccccc2C)cc1 (stereo not shown) [XV]
[1]
  Kb: 1260 nM
[2]
  Cardioselectivity: 5
[5]
  half-life: > 3 h
[7]
  half-life: 9 ± 6 min
[6]
  half-life: > 3 h

## CCOC(=O)CCNCC(O)COc1cccc(C)c1 (stereo not shown) [XXIII]
[1]
  pA2 Trachea: 6.5
[2]; [8]
  Cardioselectivity: 1.6

## CCOC(=O)CCNCC(O)COc1cccc(OC)c1 (stereo not shown) [XXIV]
[1]
  pA2 Trachea: 6.7
[2]; [8]
  Cardioselectivity: .5

## COC(=O)CCNCC(O)COc1cccc2ccccc12 (stereo not shown) [XXIX]
[1]
  Kb: 25.1 nM
[2]; [8]
  Cardioselectivity: 0.3

## COc1ccc(CCOC(=O)CCNCC(O)COc2ccccc2C)cc1OC (stereo not shown) [XXVIII]
[1]
  pA2 Trachea: 6.6
[2]
  Cardioselectivity: 2.5
Guinea pig right atria
  pA2 Atria: 7.0
[4]
  ED50: 168 mg/kg
  80% Recovery Time: > 60 min
  % I (Percent inhibition of heart rate response to isoproterenol): 85%

## CCOC(=O)CNCC(O)COc1ccccc1C (stereo not shown) [XXVII]
[1]
  pA2 Trachea: 6.2
[2]; [8]
  Cardioselectivity: 0.5

## CCOC(=O)CCNCC(O)COc1c(C)cccc1C (stereo not shown) [XXVI]
Guinea pig right atria; [9]
  Kb: 794 nM

## Cc1ccccc1OCC(O)CNCCC(=O)OCC(F)(F)F (stereo not shown) [XX]
Guinea pig right atria; [9]
  Kb: 2000 nM
